Patent publication US11155539B2, “4-pyridinylmethyl-morpholine derivatives and the use thereof as medicament” (Boehringer Ingelheim International GmbH, priority 2018, dated 2021)

Tests used:
[1] = Metabolic stability in pooled human liver microsomes; format: in vitro ADME; conditions: pH 7.6, 1 μM compound, 37° C., NADPH, read-out: Half-life - t½ human liver microsomes
Excerpt: Stability in human liver microsomes refers to the susceptibility of compounds to biotransformation in the context of selecting and/or designing drugs with favorable pharmacokinetic properties. The primary site of metabolism for many drugs is the liver. Human liver microsomes contain the cytochrome P450s (CYPs), and thus represent a model system for studying drug metabolism in vitro Enhanced stability in human liver microsomes is associated with several advantages, including increased bioavailability and adequate half-life, which can enable lower and less frequent dosing of patients. Thus, enhanced stability in human liver microsomes is a favorable characteristic for compounds that are to be used for drugs.
The metabolic degradation of the test compound was assayed at 37° C. with pooled human liver microsomes. The final incubation volume of 60 μl per time point contains TRIS buffer pH 7.6 at room temperature (0.1 M), magnesium chloride (5 mM aqueous solution), microsomal protein (1 mg/mL for human) and the test compound at a final concentration of 1 μM. Following a short preincubation period at 37° C., the reactions were initiated by addition of betanicotinamide adenine dinucleotide phosphate, reduced form (NADPH, 1 mM), and terminated by transferring an aliquot into acetonitril after different time points. After centrifugation (10000 g, 5 min), an aliquot of the supernatant was assayed by HPLC-MS/MS as described above for the MDCK assay P-gp for the amount of parent compound. The half-life was determined by the slope of the semi-logarithmic plot of the concentration-time profile.

[2] = target: T1, MDR1 (P-gp) (Homo sapiens, UniProt P08183); assay: MDCK assay P-gp (permeability across MDCK-MDR1 monolayers); format: in vitro ADME; conditions: for Papp A→B at 2 h: apical-to-basal, MDCK-MDR1 monolayers, pH 7.4; for efflux ratio at 2 h: pH 7.4, Papp (b-a) divided by Papp (a-b), MDCK-MDR1, read-out: efflux ratio PEBA/PEAB
T1 construct: expressed in transfected cells; host or cells: MDCKII (Madin-Darby canine kidney)
T1 sequence (P08183 whole entry): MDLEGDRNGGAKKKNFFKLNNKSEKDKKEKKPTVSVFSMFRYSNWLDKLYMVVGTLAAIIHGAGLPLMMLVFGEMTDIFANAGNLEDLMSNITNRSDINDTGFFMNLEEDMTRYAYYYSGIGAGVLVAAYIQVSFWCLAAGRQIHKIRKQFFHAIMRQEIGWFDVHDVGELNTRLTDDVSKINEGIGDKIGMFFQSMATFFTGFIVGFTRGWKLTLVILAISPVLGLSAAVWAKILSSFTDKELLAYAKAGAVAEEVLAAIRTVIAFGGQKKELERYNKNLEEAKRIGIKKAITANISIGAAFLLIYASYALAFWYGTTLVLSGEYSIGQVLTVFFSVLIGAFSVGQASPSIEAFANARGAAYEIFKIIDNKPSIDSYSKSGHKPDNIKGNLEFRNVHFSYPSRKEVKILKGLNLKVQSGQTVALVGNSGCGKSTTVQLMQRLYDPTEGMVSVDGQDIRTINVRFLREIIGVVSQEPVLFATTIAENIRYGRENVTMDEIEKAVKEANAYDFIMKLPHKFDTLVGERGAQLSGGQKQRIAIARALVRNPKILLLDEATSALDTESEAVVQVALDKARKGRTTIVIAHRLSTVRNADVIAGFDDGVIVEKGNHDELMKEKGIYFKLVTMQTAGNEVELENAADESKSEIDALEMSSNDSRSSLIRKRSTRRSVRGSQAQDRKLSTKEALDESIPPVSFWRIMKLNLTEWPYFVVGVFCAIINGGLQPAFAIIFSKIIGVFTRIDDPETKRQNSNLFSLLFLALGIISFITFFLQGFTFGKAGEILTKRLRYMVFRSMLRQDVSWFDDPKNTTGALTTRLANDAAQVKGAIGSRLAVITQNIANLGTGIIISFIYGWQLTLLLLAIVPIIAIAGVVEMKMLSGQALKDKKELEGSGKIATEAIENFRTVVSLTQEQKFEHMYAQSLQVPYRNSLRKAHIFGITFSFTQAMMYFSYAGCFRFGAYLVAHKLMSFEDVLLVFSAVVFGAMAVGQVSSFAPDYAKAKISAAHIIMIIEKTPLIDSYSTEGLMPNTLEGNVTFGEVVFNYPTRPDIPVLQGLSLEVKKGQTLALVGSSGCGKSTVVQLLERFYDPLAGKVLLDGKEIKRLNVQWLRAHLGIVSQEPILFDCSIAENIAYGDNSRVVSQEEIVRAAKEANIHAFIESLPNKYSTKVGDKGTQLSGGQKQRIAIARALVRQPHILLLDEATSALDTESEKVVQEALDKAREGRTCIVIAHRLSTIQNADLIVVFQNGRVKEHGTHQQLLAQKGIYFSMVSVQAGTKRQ
Description: The MDCK assays provide information on the potential of a compound to pass the blood brain barrier. Permeability measurements across polarized, confluent MDCK-MDR1 cell monolayers grown on permeable filter supports are used as an in vitro absorption model: apparent permeability coefficients (PE) of the compounds across the MDCK-MDR1 cell monolayers are measured (pH 7.4, 37° C.) in apical-to-basal (AB) and basal-to-apical (BA) transport direction. The AB permeability (PEAB) represents drug absorption from the blood into the brain and the BA permeability (PEBA) drug efflux from the brain back into the blood via both, passive permeability as well as active transport mechanisms mediated by efflux and uptake transporters that are expressed on the MDCK-MDR1 cells, predominantly by the overexpressed human MDR1. Identical or similar permeabilities in both transport directions indicate passive permeation (PEBA/PEAB≤1), vectorial permeability points to additional active transport mechanisms. Higher PEBA than PEAB (PEBA/PEAB>5) indicates the involvement of active efflux mediated by MDR1, which might compromise the goal to achieve sufficient brain exposure. Therefore, this assay provides valuable support for selection of compounds applicable for further in vivo testing. High permeability not limited by efflux at the blood brain barrier is a favorable characteristic for compounds that are to be used for drugs acting primarily in the CNS.
Apparent permeability coefficients (Papp) of the compounds across the MDCK-MDR1 monolayers (MDCKII cells transfected with human MDR1 cDNA expression plasmid) are measured in apical-to-basal (AB) and basal-to-apical (BA) direction. MDCK-MDR1 cells (6×10^5 cells/cm^2) are seeded on filter inserts (Corning, Transwell, polycarbonate, 0.4 μm pore size) and cultured for 9 to 10 days. Compounds dissolved in DMSO stock solution (1-20 mM) are diluted with HTP-4 aqueous buffer (128.13 mM NaCl, 5.36 mM KCl, 1 mM MgSO4, 1.8 mM CaCl2, 4.17 mM NaHCO3, 1.19 mM Na2HPO4, 0.41 mM NaH2PO4, 15 mM HEPES, 20 mM glucose, pH 7.4) supplemented with 0.25% BSA to prepare the transport solutions (final concentration: 1 or 10 μM, final DMSO<=0.5%). The transport solution is applied to the apical or basolateral donor side for measuring A-B or B-A permeability, respectively. The receiver side contains HTP-4 buffer supplemented with 0.25% BSA. Samples are collected at the start and end of experiment from the donor and at various time intervals for up to 2 hours also from the receiver side for concentration measurement by HPLC-MS/MS (RapidFire High-throughput MS System (Agilent) coupled to QTrap 6500 (AB Sciex) or TSQ Vantage (Thermo Scientific)). Sampled receiver volumes are replaced with fresh receiver solution. Efflux ratio is calculated dividing the Papp (b-a) values by the Papp (a-b) values.

[3] = target: T2, NMDA NR1/NR2B receptor (Homo sapiens, UniProt Q05586+Q13224); assay: In vitro NMDA NR1/NR2B cell assay (FLIPR, intracellular calcium induced by glycine/glutamate); format: cell-based; conditions: HEK293 cells expressing NMDA NR1/NR2B; 20 μM glycine, 1 μM glutamate; read-out: IC50 (in vitro NR2B affinity, FLIPR assay)
T2 construct: host or cells: HEK293, tetracycline-inducible expression
T2 sequence (Q13224 27-1484, other chains not shown): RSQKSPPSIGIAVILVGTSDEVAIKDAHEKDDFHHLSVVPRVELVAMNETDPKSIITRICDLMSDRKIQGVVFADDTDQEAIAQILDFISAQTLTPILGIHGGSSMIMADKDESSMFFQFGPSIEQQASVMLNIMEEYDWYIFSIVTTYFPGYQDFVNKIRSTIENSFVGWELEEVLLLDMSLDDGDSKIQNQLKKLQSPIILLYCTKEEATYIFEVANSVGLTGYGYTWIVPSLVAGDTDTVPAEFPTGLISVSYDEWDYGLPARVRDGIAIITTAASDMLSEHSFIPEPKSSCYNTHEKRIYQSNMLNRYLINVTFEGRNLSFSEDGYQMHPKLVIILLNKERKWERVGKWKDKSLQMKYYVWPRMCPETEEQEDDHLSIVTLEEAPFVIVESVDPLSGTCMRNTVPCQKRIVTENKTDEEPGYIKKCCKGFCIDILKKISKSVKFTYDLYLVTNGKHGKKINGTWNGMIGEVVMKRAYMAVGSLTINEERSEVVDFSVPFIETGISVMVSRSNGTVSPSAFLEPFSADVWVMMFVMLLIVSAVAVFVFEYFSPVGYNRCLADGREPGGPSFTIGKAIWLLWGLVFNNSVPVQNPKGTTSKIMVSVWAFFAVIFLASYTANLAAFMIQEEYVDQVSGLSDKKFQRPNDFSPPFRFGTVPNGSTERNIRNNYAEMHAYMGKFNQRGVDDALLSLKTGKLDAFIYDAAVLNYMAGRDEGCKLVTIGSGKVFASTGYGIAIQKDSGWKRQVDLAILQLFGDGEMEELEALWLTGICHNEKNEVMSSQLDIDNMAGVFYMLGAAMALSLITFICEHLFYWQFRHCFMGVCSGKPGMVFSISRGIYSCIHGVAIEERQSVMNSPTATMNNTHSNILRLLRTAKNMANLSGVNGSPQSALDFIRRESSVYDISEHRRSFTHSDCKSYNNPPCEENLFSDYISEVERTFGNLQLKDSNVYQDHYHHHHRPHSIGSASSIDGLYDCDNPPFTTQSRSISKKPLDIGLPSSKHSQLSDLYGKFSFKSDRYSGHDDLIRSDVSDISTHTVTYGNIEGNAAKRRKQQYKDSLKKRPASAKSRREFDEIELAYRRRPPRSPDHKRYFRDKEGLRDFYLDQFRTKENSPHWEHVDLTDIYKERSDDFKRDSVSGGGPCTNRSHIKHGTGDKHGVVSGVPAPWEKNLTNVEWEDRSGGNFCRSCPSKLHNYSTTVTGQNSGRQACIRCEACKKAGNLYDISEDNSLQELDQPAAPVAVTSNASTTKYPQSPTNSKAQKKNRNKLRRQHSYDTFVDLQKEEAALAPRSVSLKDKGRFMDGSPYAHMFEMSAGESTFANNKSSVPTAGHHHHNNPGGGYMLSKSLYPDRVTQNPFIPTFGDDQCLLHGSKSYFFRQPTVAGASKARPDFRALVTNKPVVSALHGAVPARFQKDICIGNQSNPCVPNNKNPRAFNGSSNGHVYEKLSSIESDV
Description: (§1) A human HEK293 cell line with tetracyclin-inducible expression of NMDA NR1/NR2B receptor was used as a test system for compound efficacy and potency. The cell line was purchased from ChanTest, Catalog #CT6121. Compound activity was determined by measuring the effect of compounds on intracellular calcium concentration induced by glycine/glutamate agonism in a FLIPRtetra system (Molecular Devices).
(§2) The cells were obtained as frozen cells in cryo-vials and stored until use at −150° C. Cells were grown in culture medium (DMEM/F12, 10% FBS, 5 μg/mL Blasticidin, 150 μg/mL Zeozin, 500 μg/mL Geneticin). […] For sub-culturing the cells were detached from flasks by Versene. For the assay, cells were detached, washed twice with induction medium (DMEM/F12 without glutamine, 10% FBS, 2 μg/mL Tetracycline, 2 mM Ketamine) and seeded to 384 well pure coat amine plates (Becton Dickinson, 50000 cells per well in 50 μl) 48 h prior to assay in induction medium.
(§3) The test compounds were dissolved in 100% DMSO at a concentration of 10 mM and in a first step diluted in DMSO to a concentration of 5 mM, followed by serial dilution steps in 100% DMSO. Dilution factor and number of dilution steps may vary according to needs. Typically 8 different concentrations by 1:5 dilutions were prepared in duplicate, further intermediate dilutions (1:37.5) of the substances were carried out with aqueous assay buffer (137 mM NaCl, 4 mM KCl, 1.8 mM CaCl2, 10 mM HEPES, 10 mM Glucose, pH 7.4) resulting in a compound concentration 3 times above the final test concentration and DMSO at 2.7% resulting in 0.9% final DMSO concentration in the assay.
(§4) At the assay day cells were washed 3× with assay buffer (as described above), 10 μL buffer remained in the wells after washing. 10 μL Ca kit loading buffer (AAT Bioquest; prepared from the kit containing the following components: Component A: Fluo-8 NW dissolved in 200 μL DMSO and 20 μl of this solution are mixed with 10 ml buffer prepared out of component B and C, Component B: 10× Pluronic® F127 Plus diluted 1:10 in component C, Component C: HHBS (Hanks with 20 mM Hepes) was added to the cells and the plates were incubated with lid for 60 minutes at room temperature. 20 μl assay buffer containing 60 μM glycine (20 μM final) and 3 μM glutamate (1 μM final) was added to column 1-23, column 24 got assay buffer without glycine/glutamate to serve as negative unstimulated control. Fluorescence (indicating the calcium influx as a result of the NR1/NR2B ion channel activation) was read on the FLIPRtetra device for 60 seconds to monitor the glutamate induced effects. After 2 minutes 20 μL of compound dilution prepared as described above or controls (row 1-22) in assay buffer were carefully added to the wells. […] The average of 2 measurements at 5 minutes and […] 10 seconds after compound addition is calculated and further used for IC50 calculations. Each assay microtiter compound dilution plate contained wells (in column 23 or 24) with DMSO controls instead of compound as controls for glycine/glutamate induced fluorescence (high controls) and wells with 1 μM of a reference NR2B NAM as low controls (Compound 22; reference: Layton, Mark E et al, ACS Chemical Neuroscience 2011, 2(7), 352-362).
(§5) The output file of the reader contains the well number and measured average fluorescence units. For data evaluation and calculation, the measurement of the low control was set as 0% control and the measurement of the high control was set as 100% control. The IC50 values were calculated using the standard 4 parameter logistic regression formula. Calculation: [y=(a−d)/(1+(x/c)^b)+d], a=low value, d=high value; x=conc M; c=IC50 M; b=slope.

[4] = target: T3, NMDA NR1/NR2B receptor (Homo sapiens, UniProt Q13224); assay: as above; format: cell-based; conditions: see Table 2
T3 construct: host or cells: HEK293, tetracycline-inducible expression
Description: as §1, §2, §3, §4, §5

[5] = target: Nav1.6 (Homo sapiens, UniProt Q9UQD0); assay: Nav 1.6 inhibition, IonWorks Quattro electrophysiology; format: cell-based; conditions: for inhibition at 1 µM / inhibition at 5 µM: normalized to vehicle control (0%) and maximal inhibition control (100%)
Chain of Nav1.6 (Q9UQD0 whole entry): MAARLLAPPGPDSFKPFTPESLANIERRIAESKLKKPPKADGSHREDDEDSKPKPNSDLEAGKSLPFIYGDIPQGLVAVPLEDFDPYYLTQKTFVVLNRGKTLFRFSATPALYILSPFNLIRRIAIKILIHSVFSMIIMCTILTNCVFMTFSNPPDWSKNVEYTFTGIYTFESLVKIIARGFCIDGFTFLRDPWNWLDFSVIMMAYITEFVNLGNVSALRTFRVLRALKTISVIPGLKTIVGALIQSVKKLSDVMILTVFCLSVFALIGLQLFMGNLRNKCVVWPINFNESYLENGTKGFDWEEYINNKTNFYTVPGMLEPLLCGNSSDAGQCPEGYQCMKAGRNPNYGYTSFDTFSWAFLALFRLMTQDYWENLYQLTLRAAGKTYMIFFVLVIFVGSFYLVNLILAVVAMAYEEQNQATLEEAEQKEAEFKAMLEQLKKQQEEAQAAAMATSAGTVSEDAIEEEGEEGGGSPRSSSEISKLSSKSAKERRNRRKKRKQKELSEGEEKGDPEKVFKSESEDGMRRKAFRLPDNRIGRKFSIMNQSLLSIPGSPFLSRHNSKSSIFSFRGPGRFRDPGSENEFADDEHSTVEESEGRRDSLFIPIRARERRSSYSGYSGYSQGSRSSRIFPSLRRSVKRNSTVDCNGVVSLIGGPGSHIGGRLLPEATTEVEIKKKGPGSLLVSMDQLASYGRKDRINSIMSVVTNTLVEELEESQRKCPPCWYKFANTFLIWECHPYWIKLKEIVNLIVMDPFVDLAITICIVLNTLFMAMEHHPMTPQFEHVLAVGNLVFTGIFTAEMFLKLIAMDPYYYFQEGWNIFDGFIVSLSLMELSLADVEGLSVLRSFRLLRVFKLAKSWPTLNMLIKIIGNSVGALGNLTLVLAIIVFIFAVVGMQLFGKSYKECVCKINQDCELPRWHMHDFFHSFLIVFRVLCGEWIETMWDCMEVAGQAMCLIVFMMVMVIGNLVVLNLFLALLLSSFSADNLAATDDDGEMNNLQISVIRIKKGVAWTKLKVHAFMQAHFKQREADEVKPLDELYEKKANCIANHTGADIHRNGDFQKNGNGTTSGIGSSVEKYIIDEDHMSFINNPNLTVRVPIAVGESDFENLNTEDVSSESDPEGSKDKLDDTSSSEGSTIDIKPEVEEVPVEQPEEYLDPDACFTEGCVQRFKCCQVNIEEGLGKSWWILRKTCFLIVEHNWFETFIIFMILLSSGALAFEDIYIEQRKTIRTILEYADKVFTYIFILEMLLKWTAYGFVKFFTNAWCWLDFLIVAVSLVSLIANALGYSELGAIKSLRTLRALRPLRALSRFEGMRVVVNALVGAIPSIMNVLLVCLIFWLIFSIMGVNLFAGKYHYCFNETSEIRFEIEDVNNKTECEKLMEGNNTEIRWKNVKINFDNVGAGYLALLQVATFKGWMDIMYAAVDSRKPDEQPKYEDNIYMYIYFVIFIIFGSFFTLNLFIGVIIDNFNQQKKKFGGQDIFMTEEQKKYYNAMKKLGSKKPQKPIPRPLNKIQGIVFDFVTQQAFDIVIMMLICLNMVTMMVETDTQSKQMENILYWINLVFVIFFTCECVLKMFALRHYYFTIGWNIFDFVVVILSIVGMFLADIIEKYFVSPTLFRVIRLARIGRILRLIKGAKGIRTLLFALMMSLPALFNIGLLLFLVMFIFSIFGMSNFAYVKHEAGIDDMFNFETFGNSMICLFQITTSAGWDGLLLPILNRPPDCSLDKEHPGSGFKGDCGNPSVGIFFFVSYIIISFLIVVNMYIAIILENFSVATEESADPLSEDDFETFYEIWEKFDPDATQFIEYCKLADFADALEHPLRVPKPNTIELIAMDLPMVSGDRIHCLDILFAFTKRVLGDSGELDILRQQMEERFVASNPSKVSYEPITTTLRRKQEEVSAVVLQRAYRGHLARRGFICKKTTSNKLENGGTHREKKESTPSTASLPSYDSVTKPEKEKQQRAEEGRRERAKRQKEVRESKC
Description: Determination of Nav 1.6.Inhibition
IonWorks Quattro electrophysiological platform
The compounds were prepared in DMSO at 300× the final assay concentrations of 1 and 5 μM.
The 300×DMSO stock solutions were transferred into assay plates where 2 μl per well of each 300× stock solution were placed. All assay plates were stored at −80° C. until the day of assay.
On the day of the assay, the appropriate assay plate was thawed at room temperature, centrifuged, and 198 μl of external recording solution was added and mixed thoroughly. This provided a 1:100 dilution. A further 1:3 dilution occurred upon addition to the cells in the IonWorks Quattro electrophysiological platform, giving a 1:300 dilution in total. On each assay plate, at least 8 wells were reserved for vehicle control (0.3% DMSO) and at least 8 wells for each positive control specific to the cell line tested. The positive controls were tested at a maximal blocking and an approximate IC50 concentration. As positive control Lidocaine at concentrations of 30 and 1000 μM was used.
The solutions for recording Nav1.6 currents were as follows:
Amphotericin B was used to obtain electrical access to the cell interior at a final concentration of 200 μg/ml in internal recording solution.
State-dependent inhibition: Sodium channels when held at depolarized potential or long test pulse, the channels open and inactivate and then stay inactivated until the membrane potential is stepped back to hyperpolarized potentials, when the inactivated channels recover from inactivation into closed state.
Cells were held at −120 mV. In order to completely inactivate the sodium channels (pulse 1), the cells were pulsed to +0 mV for 2500 ms and stepped back to −120 mV for 10 ms (to completely recover from inactivation, however channels that had drugs bound to them will not recover from inactivation) before stepping to +0 mV for 20 ms (pulse 2).
Both the positive and vehicle control data associated with each cell line assayed are shown below as an example. The mean is shown for each positive and negative control as solid symbol with the total number of individual well replicates given next to the solid symbol. In addition, the individual data of each well are shown on the graph as open symbols so that the variation about the mean value can be readily assessed.
Shown below are the assay controls for the Nav1.6 IonWorks Quattro assay.
Tables 3 and 4 show the normalized percentage inhibition of Nav1.6 channel. […] (see also the figure Assay Control Results above).

Row | SMILES | half-life at 1 μM [1] | Papp A→B at 2 h [2] | efflux ratio at 2 h [2] | IC50 [3] | inhibition at 1 µM [5] | inhibition at 5 µM [5] | activity on the NR1-NR2B ion channel (in words) [4] | significant inhibition of the Nav 1.6 channel (in words) ([5]; at 1 and 5 μM)
1 | O=C(NCc1ccccn1)C1CN(Cc2cccc(Oc3ccccc3)c2)CCO1 (centres unmarked) [Example 105 of WO2015/130905, reference compound] | – | – | – | – | – | – | do not show any activity | –
2 | COCCNC(=O)C1CN(Cc2cccc(Oc3ccccc3)c2)CCO1 (centres unmarked) [Example 107 of WO2015/130905, reference compound] | – | – | – | > 9260 nM | -8.5% | 13.1% | do not show any activity | do not show any significant inhibition
3 | CCNC(=O)C1CN(Cc2cccc(Oc3ccccc3)c2)CCO1 (centres unmarked) [Example 100 of WO2015/130905, reference compound] | – | – | – | – | – | – | do not show any activity | –
4 | CNC(=O)C1CN(Cc2ccc(Oc3ccc(F)cc3F)nc2)CCO1 (centres unmarked) [Example 11] | > 130 min | 72 ×10⁻⁶ cm/s | 0.6 | – | 4.2% | -3.6% | – | –
5 | CNC(=O)C1CN(Cc2ccc(Oc3ccc(Cl)cc3F)nc2)CCO1 (centres unmarked) [Example 15] | > 130 min | 42 ×10⁻⁶ cm/s | 0.7 | – | -17.4% | -1.4% | – | –
6 | CNC(=O)C1CN(Cc2ccc(Oc3ccc(F)cc3)nc2)CCO1 (centres unmarked) [Example 14] | > 130 min | 92 ×10⁻⁶ cm/s | 0.4 | – | 0.7% | 0.4% | – | –

Continued, in another order:

Row | half-life at 1 μM [1] | Papp A→B at 2 h [2] | efflux ratio at 2 h [2] | IC50 [3] | inhibition at 1 µM [5] | inhibition at 5 µM [5] | SMILES | activity on the NR1-NR2B ion channel (in words) [4] | significant inhibition of the Nav 1.6 channel (in words) ([5]; at 1 and 5 μM)
7 | > 130 min | 71 ×10⁻⁶ cm/s | 0.5 | 366 nM | – | – | CNC(=O)[C@@H]1CN(Cc2ccc(Oc3ccccc3F)cn2)CCO1 [Example 33] | – | –
8 | > 130 min | 63 ×10⁻⁶ cm/s | 0.7 | 275 nM | – | – | CNC(=O)[C@@H]1CN(Cc2ccc(Oc3ccc(F)cc3F)cn2)CCO1 [Example 31] | – | –
9 | > 130 min | 80 ×10⁻⁶ cm/s | 0.5 | 255 nM | – | – | CNC(=O)[C@@H]1CN(Cc2ccc(Oc3ccc(Cl)cc3F)cn2)CCO1 [Example 32] | – | –
10 | > 130 min | 58 ×10⁻⁶ cm/s | 0.8 | 133 nM | – | – | CNC(=O)[C@@H]1CN(Cc2ccc(Oc3ccc(C)cc3F)cn2)CCO1 [Example 34] | – | –
